Article PMC9728921, “Characterization of a KDM5 small molecule inhibitor with antiviral activity against hepatitis B virus” (PLOS ONE, 2022)

What was measured:
KDM4B = target: T1, KDM4B (Homo sapiens, UniProt O94953); assay: KDM4B enzymatic assay (AlphaLISA); assay type: biochemical
T1 sequence (O94953 1-1096): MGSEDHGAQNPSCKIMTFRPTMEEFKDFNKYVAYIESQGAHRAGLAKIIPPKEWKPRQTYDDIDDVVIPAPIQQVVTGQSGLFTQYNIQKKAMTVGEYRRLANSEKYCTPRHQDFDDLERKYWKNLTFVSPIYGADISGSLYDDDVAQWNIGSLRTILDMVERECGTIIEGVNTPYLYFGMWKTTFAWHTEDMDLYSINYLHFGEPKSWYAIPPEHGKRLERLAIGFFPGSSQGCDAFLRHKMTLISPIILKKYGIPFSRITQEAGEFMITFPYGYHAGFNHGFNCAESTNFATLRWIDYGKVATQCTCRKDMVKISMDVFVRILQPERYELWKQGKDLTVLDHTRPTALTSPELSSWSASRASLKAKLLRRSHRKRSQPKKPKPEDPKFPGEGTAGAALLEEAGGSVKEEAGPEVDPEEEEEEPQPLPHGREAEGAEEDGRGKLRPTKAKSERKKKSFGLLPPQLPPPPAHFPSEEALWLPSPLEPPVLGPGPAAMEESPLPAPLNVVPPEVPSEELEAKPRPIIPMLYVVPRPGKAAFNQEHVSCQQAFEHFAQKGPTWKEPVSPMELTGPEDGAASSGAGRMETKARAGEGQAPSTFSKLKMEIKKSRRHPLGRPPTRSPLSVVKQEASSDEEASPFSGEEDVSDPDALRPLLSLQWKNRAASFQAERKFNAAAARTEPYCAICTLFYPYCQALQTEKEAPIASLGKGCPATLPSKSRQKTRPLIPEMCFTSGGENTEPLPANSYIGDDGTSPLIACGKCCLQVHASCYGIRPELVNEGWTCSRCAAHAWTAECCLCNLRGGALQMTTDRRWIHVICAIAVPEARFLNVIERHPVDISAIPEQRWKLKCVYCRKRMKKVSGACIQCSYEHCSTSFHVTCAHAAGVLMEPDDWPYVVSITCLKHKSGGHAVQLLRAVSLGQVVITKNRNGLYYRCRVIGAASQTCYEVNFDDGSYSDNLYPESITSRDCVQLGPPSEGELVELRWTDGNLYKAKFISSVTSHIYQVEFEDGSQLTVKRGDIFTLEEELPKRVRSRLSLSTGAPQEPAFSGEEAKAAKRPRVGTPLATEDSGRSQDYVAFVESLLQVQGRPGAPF
Method: The following assay protocol was used for all histone demethylases tested except KDM1A, KDM5A, B, and D, which are described below. Compounds were serially diluted into a 384-well Alpha plate as a DMSO solution and mixed with 5 μL reaction buffer (buffer A) containing 50 mM HEPES (pH 7.0), 0.1% BSA, and 0.003% Tween-20. The enzyme of interest was pre-incubated with 15 μM of Fe^2+ for 10 min (except 30 min for KDM2B) in reaction buffer A. 5 μL of the enzyme mixture was added to each of the compound-containing wells and incubated for 10 min. The reaction was started by addition of a 5 μL mixture containing 300 nM peptide substrate, 75 μM L-ascorbic acid, and 30 μM α-ketoglutarate in buffer A. This final 15 μL of reaction mixture was incubated for 20 min for KDM5B and 1 hour for the other KDM enzymes. The reaction was quenched with 10 μL of diluted AlphaLISA Acceptor beads (1:400) in Epigenetics Buffer and incubated for 60 min. The Donor beads were diluted 1:400 into Epigenetics Buffer in the dark and 10 μL of this was added to each well and incubated for another 60 min in the dark. The assay plates were read on an Enspire plate reader (PerkinElmer) using a standard AlphaLISA program.
(§1) Data was analyzed using GraphPad Prism 6.0 (La Jolla, CA). […] IC50 values were calculated as an average of at least two independent experiments.

KDM5D = target: T2, KDM5D (Homo sapiens, UniProt Q9BY66); assay: KDM5D enzymatic assay (LANCE TR-FRET); assay type: biochemical; settings: IC50 of KDM5D over KDM5A
T2 construct: purchased Eurofins Cerep SA (assay run there as a contract service)
T2 sequence (Q9BY66 whole entry): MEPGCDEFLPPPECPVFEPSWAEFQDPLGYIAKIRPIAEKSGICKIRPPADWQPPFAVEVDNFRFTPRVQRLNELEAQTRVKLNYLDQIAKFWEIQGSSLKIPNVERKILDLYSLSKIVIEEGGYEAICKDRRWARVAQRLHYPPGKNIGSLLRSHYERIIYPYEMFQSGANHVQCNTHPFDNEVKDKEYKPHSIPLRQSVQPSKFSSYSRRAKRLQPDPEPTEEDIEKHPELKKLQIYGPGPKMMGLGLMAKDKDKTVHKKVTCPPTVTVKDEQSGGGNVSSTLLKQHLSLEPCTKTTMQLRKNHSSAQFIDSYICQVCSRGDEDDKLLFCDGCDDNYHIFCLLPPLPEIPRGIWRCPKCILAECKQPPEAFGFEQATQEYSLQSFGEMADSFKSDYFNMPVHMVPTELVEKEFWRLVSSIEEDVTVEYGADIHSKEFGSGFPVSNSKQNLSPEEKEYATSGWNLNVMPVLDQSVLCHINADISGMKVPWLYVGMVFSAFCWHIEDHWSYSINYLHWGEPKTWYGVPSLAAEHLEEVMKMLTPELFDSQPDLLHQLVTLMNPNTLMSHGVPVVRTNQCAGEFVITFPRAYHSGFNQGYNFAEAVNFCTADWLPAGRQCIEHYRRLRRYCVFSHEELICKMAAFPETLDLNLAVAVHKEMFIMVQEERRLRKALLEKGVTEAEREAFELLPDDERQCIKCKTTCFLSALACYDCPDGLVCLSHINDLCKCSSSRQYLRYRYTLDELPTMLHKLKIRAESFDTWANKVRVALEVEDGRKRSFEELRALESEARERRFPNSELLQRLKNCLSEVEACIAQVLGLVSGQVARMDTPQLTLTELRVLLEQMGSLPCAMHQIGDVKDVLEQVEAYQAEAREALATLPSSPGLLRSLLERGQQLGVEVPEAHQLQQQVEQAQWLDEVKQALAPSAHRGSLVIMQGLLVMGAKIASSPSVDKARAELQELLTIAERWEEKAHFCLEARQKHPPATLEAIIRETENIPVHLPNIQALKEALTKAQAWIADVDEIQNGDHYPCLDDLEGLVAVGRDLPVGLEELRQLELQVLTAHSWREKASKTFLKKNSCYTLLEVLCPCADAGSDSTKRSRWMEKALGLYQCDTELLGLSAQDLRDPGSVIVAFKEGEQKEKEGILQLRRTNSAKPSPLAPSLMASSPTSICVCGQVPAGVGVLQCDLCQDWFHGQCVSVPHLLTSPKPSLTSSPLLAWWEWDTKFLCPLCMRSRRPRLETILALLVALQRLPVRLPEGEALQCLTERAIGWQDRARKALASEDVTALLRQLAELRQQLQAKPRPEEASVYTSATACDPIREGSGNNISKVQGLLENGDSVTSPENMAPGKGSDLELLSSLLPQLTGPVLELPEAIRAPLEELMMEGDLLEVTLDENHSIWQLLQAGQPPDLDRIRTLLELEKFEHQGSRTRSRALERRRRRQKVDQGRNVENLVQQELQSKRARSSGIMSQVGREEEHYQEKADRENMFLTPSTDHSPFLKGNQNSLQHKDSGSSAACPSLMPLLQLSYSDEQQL
Method: KDM5D was tested using a LANCE TR-FRET assay by Eurofins Cerep SA (France). All concentrations were final unless noted otherwise. Inhibitors were added to a mixture containing 45 mM HEPES/Tris-HCl (pH 7.5), 5 μM ferrous ammonium sulfate, 100 μM ascorbic acid, 10 μM 2-oxoglutarate, 0.01% Tween 20, 0.01% BSA, and 10 ng of enzyme, followed by addition of 100 nM biotin-H3K4me3 substrate. The 10 μL reaction mixture was incubated for 10 min at room temperature and quenched through the addition of 1 mM EDTA to reach a final concentration of 0.33 mM EDTA. After 5 min, the Eu-labeled anti-methyl histone H3K4me1-2 antibody and the Ulight streptavidin were added, and the mixture was incubated for 60 min. The fluorescence resonance energy transfer was measured using an excitation wavelength of 320 nm and emission wavelengths of 620 nm and 665 nm on an Envision plate reader (Perkin Elmer).
as §1

CCN(CCN(C)C)C(=O)CNCc1cc(C(=O)O)ccn1 [GS-080]
Fold Selectivity Compared to KDM5A (KDM4B; IC50 of KDM4B over KDM5A): 13 fold
IC50 (KDM4B; enzyme concentration 1 nM): 4.7 nM
Fold Selectivity Compared to KDM5A (KDM5D): 183 fold
